Measured values as given in patent publication US20150105252A1, “SUBSTITUTED PYRAZOLES AS HERBICIDES” (E I DU PONT DE NEMOURS AND COMPANY, priority 2013, published 2015).

Assays:
barnyardgrass [1] = test: Test A preemergence; type: in vivo, Echinochloa crus-galli; conditions: 0 to 100 scale
Source text: (§1) Seeds of plant species selected from barnyardgrass (Echinochloa crus-galli), kochia (Kochia scoparia), common ragweed (Ambrosia elation), Italian ryegrass (Lolium multiflorum), crabgrass, large (large crabgrass, Digitaria sanguinalis), foxtail, giant (giant foxtail, Setaria faberii), morningglory (Ipomoea spp.), pigweed (redroot pigweed, Amaranthus retroflexus), velvetleaf (Abutilon theophrasti), wheat (Triticum aestivum), and corn (Zea mays) were planted into a blend of loam soil and sand and treated preemergence with a directed soil spray using test chemicals formulated in a non-phytotoxic solvent mixture which included a surfactant.
(§2) At the same time, plants selected from these crop and weed species and also blackgrass (Alopecurus myosuroides), and galium (catchweed bedstraw, Galium aparine) were planted in pots containing the same blend of loam soil and sand and treated with postemergence applications of test chemicals formulated in the same manner. Plants ranged in height from 2 to 10 cm and were in the one- to two-leaf stage for the postemergence treatment. Treated plants and untreated controls were maintained in a greenhouse for approximately 10 days, after which time all treated plants were compared to untreated controls and visually evaluated for injury. Plant response ratings, summarized in Table A, are based on a 0 to 100 scale where 0 is no effect and 100 is complete control. A dash (-) response means no test result.

crabgrass, large [2] = test: Test A preemergence; type: in vivo, Digitaria sanguinalis; conditions: 0 to 100 scale
Source text: as §1, §2

morningglory [3] = test: Test A preemergence; type: in vivo, Ipomoea spp.; conditions: 0 to 100 scale
Source text: as §1, §2

velvetleaf [4] = test: Test A preemergence; type: in vivo, Abutilon theophrasti; conditions: 0 to 100 scale
Source text: as §1, §2

barnyardgrass [5] = test: Test A postemergence; type: in vivo, Echinochloa crus-galli; conditions: Postemergence
Source text: as §1, §2

crabgrass, large [6] = test: Test A postemergence; type: in vivo, Digitaria sanguinalis
Source text: as §1, §2

morningglory [7] = test: Test A postemergence; type: in vivo, Ipomoea spp.
Source text: as §1, §2

velvetleaf [8] = test: Test A postemergence; type: in vivo, Abutilon theophrasti
Source text: as §1, §2

foxtail, giant [9] = test: Test A preemergence; type: in vivo, Setaria faberii; conditions: 0 to 100 scale
Source text: as §1, §2

pigweed [10] = test: Test A preemergence; type: in vivo, Amaranthus retroflexus; conditions: 0 to 100 scale
Source text: as §1, §2

wheat [11] = test: Test A preemergence; type: in vivo, Triticum aestivum; conditions: preemergence, 125 g ai/ha; visual injury, 0 to 100 scale, approx. 10 days
Source text: as §1, §2

corn [12] = test: Test A preemergence; type: in vivo, Zea mays; conditions: 0 to 100 scale
Source text: as §1, §2

foxtail, giant [13] = test: Test A postemergence; type: in vivo, Setaria faberii
Source text: as §1, §2

pigweed [14] = test: Test A postemergence; type: in vivo, Amaranthus retroflexus
Source text: as §1, §2

wheat [15] = test: Test A postemergence; type: in vivo, Triticum aestivum
Source text: as §1, §2

corn [16] = test: Test A postemergence; type: in vivo, Zea mays
Source text: as §1, §2

[17] = Preemergence, 2000 g ai/ha, 0 no effect, 100 complete control
[18] = 1000 g ai/ha, visual rating after approx. 10 days, 0 to 100 scale (0 no effect, 100 complete control)
[19] = Postemergence, 1000 g ai/ha, visual rating after approx. 10 days, 0 to 100 scale (0 no effect, 100 complete control)
[20] = Preemergence, 500 g ai/ha, 0 no effect, 100 complete control
[21] = preemergence, 125 g ai/ha, visual injury, approx. 10 days
[22] = 125 g ai/ha, 0 to 100 scale, 0 no effect, 100 complete control
[23] = 500 g ai/ha, visual rating after approx. 10 days, 0 to 100 scale (0 no effect, 100 complete control)
[24] = Postemergence, 500 g ai/ha, visual rating after approx. 10 days, 0 to 100 scale (0 no effect, 100 complete control)
[25] = postemergence, 125 g ai/ha, about 10 days, visual rating on 0 to 100 scale (0 no effect, 100 complete control)
[26] = Postemergence, 125 g ai/ha, 0 to 100 scale, 0 no effect, 100 complete control

SMILES: Cc1cc(C(=O)NC(C)(C)C)nn1Cc1cccc(C(F)(F)F)c1 [Compound 1]
- Barnyardgrass plant response rating (barnyardgrass [1]; [17]): 10
- Crabgrass, Large plant response rating (crabgrass, large [2]; [17]): 10
- Morningglory plant response rating (morningglory [3]; [17]): 0
- Velvetleaf plant response rating (velvetleaf [4]; [17]): 0
- Barnyardgrass plant response rating (barnyardgrass [5]; [18]): 30
- Crabgrass, Large plant response rating (crabgrass, large [6]; [19]): 30
- Morningglory plant response rating (morningglory [7]; [19]): 20
- Velvetleaf plant response rating (velvetleaf [8]; [19]): 30

SMILES: Cc1cc(C(=O)NC2CC2)nn1Cc1cccc(C(F)(F)F)c1 [Compound 2]
- Barnyardgrass plant response rating (barnyardgrass [1]; [17]): 90
- Crabgrass, Large plant response rating (crabgrass, large [2]; [17]): 100
- Morningglory plant response rating (morningglory [3]; [17]): 100
- Velvetleaf plant response rating (velvetleaf [4]; [17]): 100
- Barnyardgrass plant response rating (barnyardgrass [5]; [18]): 50
- Crabgrass, Large plant response rating (crabgrass, large [6]; [19]): 50
- Morningglory plant response rating (morningglory [7]; [19]): 80
- Velvetleaf plant response rating (velvetleaf [8]; [19]): 70

SMILES: Cc1cc(C(=O)NCC(F)(F)C(F)(F)F)nn1Cc1cccc(OC(F)(F)F)c1 [Compound 6]
- Barnyardgrass plant response rating (barnyardgrass [1]; [20]): 0
- Barnyardgrass plant response rating (barnyardgrass [1]; [21]): 0
- Crabgrass, Large plant response rating (crabgrass, large [2]; [20]): 20
- Crabgrass, Large plant response rating (crabgrass, large [2]; [21]): 0
- Foxtail, Giant plant response rating (foxtail, giant [9]; [20]): 20
- Foxtail, Giant plant response rating (foxtail, giant [9]; [21]): 0
- Morningglory plant response rating (morningglory [3]; [20]): 0
- Morningglory plant response rating (morningglory [3]; [21]): 0
- Pigweed plant response rating (pigweed [10]; [20]): 50
- Pigweed plant response rating (pigweed [10]; [21]): 30
- Velvetleaf plant response rating (velvetleaf [4]; [20]): 0
- Velvetleaf plant response rating (velvetleaf [4]; [21]): 0
- Wheat plant response rating (wheat [11]): 0
- Corn plant response rating (corn [12]; [20]): 0
- Corn plant response rating (corn [12]; [21]): 0
- Barnyardgrass plant response rating (barnyardgrass [5]; [22]): 0
- Barnyardgrass plant response rating (barnyardgrass [5]; [23]): 10
- Crabgrass, Large plant response rating (crabgrass, large [6]; [24]): 30
- Crabgrass, Large plant response rating (crabgrass, large [6]; [25]): 10
- Foxtail, Giant plant response rating (foxtail, giant [13]; [24]): 20
- Foxtail, Giant plant response rating (foxtail, giant [13]; [25]): 10
- Morningglory plant response rating (morningglory [7]; [24]): 60
- Morningglory plant response rating (morningglory [7]; [25]): 30
- Pigweed plant response rating (pigweed [14]; [24]): 60
- Pigweed plant response rating (pigweed [14]; [25]): 50
- Velvetleaf plant response rating (velvetleaf [8]; [24]): 40
- Velvetleaf plant response rating (velvetleaf [8]; [25]): 10
- Wheat plant response rating (wheat [15]; [24]): 0
- Wheat plant response rating (wheat [15]; [25]): 0
- Corn plant response rating (corn [16]; [24]): 0
- Corn plant response rating (corn [16]; [25]): 0

SMILES: Cc1cc(C(=O)NCC(F)(F)F)nn1Cc1cccc(C(F)(F)F)c1 [Compound 7]
- Barnyardgrass plant response rating (barnyardgrass [1]; [20]): 40
- Barnyardgrass plant response rating (barnyardgrass [1]; [21]): 0
- Crabgrass, Large plant response rating (crabgrass, large [2]; [20]): 90
- Foxtail, Giant plant response rating (foxtail, giant [9]; [20]): 70
- Foxtail, Giant plant response rating (foxtail, giant [9]; [21]): 10
- Morningglory plant response rating (morningglory [3]; [20]): 40
- Morningglory plant response rating (morningglory [3]; [21]): 0
- Pigweed plant response rating (pigweed [10]; [20]): 90
- Pigweed plant response rating (pigweed [10]; [21]): 0
- Velvetleaf plant response rating (velvetleaf [4]; [20]): 10
- Velvetleaf plant response rating (velvetleaf [4]; [21]): 0
- Wheat plant response rating (wheat [11]): 0
- Corn plant response rating (corn [12]; [20]): 10
- Corn plant response rating (corn [12]; [21]): 0
- Barnyardgrass plant response rating (barnyardgrass [5]; [22]): 0
- Barnyardgrass plant response rating (barnyardgrass [5]; [23]): 30
- Crabgrass, Large plant response rating (crabgrass, large [6]; [24]): 40
- Crabgrass, Large plant response rating (crabgrass, large [6]; [25]): 10
- Foxtail, Giant plant response rating (foxtail, giant [13]; [24]): 30
- Foxtail, Giant plant response rating (foxtail, giant [13]; [25]): 0
- Morningglory plant response rating (morningglory [7]; [24]): 100
- Morningglory plant response rating (morningglory [7]; [25]): 40
- Pigweed plant response rating (pigweed [14]; [24]): 50
- Pigweed plant response rating (pigweed [14]; [25]): 30
- Velvetleaf plant response rating (velvetleaf [8]; [24]): 40
- Velvetleaf plant response rating (velvetleaf [8]; [25]): 30
- Wheat plant response rating (wheat [15]; [24]): 20
- Wheat plant response rating (wheat [15]; [25]): 0
- Corn plant response rating (corn [16]; [24]): 30
- Corn plant response rating (corn [16]; [25]): 10

SMILES: O=C(NC1CC1)c1cc(CCCl)n(Cc2ccnc(C(F)(F)F)c2)n1 [Compound 194]
- Morningglory plant response rating (morningglory [7]; [26]): 50
- Pigweed plant response rating (pigweed [14]; [26]): 50
- Velvetleaf plant response rating (velvetleaf [8]; [26]): 60
- Wheat plant response rating (wheat [15]; [26]): 0
